From ChEMBL document CHEMBL5727152, “Ethyldiamine orexin receptor antagonists” (2018)

Target: T1, Orexin receptor type 2 (Homo sapiens, UniProt O43614)
T1 sequence (O43614 whole entry): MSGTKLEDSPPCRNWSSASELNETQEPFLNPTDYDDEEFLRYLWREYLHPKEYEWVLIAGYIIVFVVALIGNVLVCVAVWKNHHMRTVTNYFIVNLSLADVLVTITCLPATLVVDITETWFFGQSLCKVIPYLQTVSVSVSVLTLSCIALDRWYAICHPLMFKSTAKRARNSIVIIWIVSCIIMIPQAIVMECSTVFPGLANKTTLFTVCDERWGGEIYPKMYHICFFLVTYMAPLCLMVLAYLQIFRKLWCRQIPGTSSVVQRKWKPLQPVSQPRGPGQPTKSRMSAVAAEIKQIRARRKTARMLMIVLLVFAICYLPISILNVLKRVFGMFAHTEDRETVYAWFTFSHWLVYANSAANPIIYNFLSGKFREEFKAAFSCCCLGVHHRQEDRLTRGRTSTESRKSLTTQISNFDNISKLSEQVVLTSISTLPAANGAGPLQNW
Test: FLIPR Ca2+ Flux Assay: In a typical experiment the OX1 and OX2 receptor antagonistic activity of the compounds of the present invention was determined in accordance with the following experimental method. For intracellular calcium measurements, Chinese hamster ovary (CHO) cells expressing the rat orexin-1 receptor or the human orexin-2 receptor, are grown in Iscove's modified DMEM containing 2 mM L-glutamine, […], 1% hypoxanthine-thymidine supplement, 100 U/ml penicillin, 100 μg/ml streptomycin and 10% heat-inactivated fetal calf serum (FCS). The cells are seeded at 20,000 cells/well into Becton-Dickinson black 384-well clear bottom sterile plates coated with poly-D-lysine. All reagents were from GIBCO-Invitrogen Corp. The seeded plates are incubated overnight at 37° C. and 5% CO2. Ala-6,12 human orexin-A as the agonist is prepared as a 1 mM stock solution in 1% bovine serum albumin (BSA) and diluted in assay buffer (HBSS containing 20 mM HEPES, 0.1% BSA and 2.5 mM probenecid, pH7.4) for use in the assay at a final concentration of 70 pM. Test compounds are prepared as 10 mM stock solution in DMSO, then diluted in 384-well plates, first in DMSO, then assay buffer. On the day of the assay, cells are washed 3 times with 100 μl assay buffer and then incubated for 60 min (37° C., 5% CO2) in 60 μl assay buffer containing 1 μM Fluo-4AM ester, 0.02% pluronic acid, and 1% BSA. […]
Assay type: cell-based

CN(CCN(CC(F)(F)F)C(=O)c1ccccc1-n1nccn1)c1cc(C#N)ccn1
IC50: 113 nM
